Laboratory results as given in patent EP0573360A1, “Pyrrolothienopyrazine compounds as 5-HT3 receptors antagonists” (ADIR ET COMPAGNIE, priority 1992, dated 1993).

Target: T1, récepteurs 5-HT3 (Rattus norvegicus, UniProt P35563)
T1 construct: induite par l'injection intraveineuse d'agonistes 5-HT3 chez le rat anesthésié à l'uréthane; from tissue; host or cells: whole animal: Sprague-Dawley rat, vagal afferents
T1 sequence (P35563 24-483): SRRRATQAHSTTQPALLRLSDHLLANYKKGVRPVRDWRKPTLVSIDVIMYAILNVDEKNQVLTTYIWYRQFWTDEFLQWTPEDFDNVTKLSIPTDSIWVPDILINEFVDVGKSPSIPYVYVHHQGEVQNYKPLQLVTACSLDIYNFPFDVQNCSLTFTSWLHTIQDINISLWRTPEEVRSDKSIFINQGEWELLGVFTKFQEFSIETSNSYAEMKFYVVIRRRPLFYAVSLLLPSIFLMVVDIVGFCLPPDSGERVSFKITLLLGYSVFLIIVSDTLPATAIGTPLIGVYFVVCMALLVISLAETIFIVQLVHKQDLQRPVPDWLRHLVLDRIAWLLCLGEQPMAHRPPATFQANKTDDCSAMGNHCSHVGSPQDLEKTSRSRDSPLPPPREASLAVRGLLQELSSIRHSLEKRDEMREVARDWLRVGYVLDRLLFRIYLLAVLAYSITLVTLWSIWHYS
Experiment: Bezold-Jarisch bradycardic reflex in the urethane-anaesthetised rat
Assay type: in vivo
Conditions: for duration of the transient fall of rythme cardiaque: 30 µg i.v.; for prevention of the agonist-induced fall of rythme cardiaque: prior i.v. administration, dose 1 µg/kg
Text: La bradycardie (réflexe de BEZOLD-JARISCH) est induite par l'injection intraveineuse d'agonistes 5-HT3 chez le rat anesthésié à l'uréthane. Cette réponse consiste en une bradycardie brutale mais transitoire induite par la stimulation des récepteurs 5-HT3 sur les afférences vagales. Ce modèle est donc tout à fait approprié pour révéler d'éventuels effet agonistes ou antagonistes de composés qui sont des ligands potentiels des récepteurs 5-HT3.
L'animal (rat mâle, adulte - souche Sprague-Dawley, 250-300 g) est tout d'abord anesthésié à l'uréthane (1,4 g/kg i.p.) puis trachéotomisé pour la mise en place d'une canule trachéale. Un cathéter (0,3 mm) est introduit dans l'aorte abdominale via l'artère fémorale pour l'enregistrement en continu de la pression artérielle et du rythme cardiaque. Les agents pharmacologiques sont injectés dans la veine saphène qui a été canulée à cet effet.

Row | Compound | duration of the transient fall of rythme cardiaque | prevention of the agonist-induced fall of rythme cardiaque
1 | Cc1[nH]c2ccc(O)cc2c1CCN [2-méthyl-5-tryptamine, 2-méthyl-5 hydroxytryptamine] | 4-5 secondes | –
2 | Cc1nccn1CC1CCc2c(c3ccccc3n2C)C1=O (stereo not shown) [ondansetron] | – | complétement empêché
3 | NCCc1c[nH]c2ccc(O)cc12 [sérotonine] | 4-5 secondes | –
4 | COc1cc(N)c(Cl)cc1C(=O)NC1CN2CCC1CC2 (stereo not shown) [zacopride] | – | complétement empêché
